Assay results from US20070254910A1, “CHEMICAL COMPOUNDS” (priority 2004, published 2007).
Like-named read-outs stand apart in the source and are kept apart here.

Test system: HIV
Test: HOS HIV anti-infectivity assay (strain not stated)
Type: cell-based
Conditions: read-out: Activity Level
Method: Compounds were profiled against two HIV-1 viruses, the M-tropic (CCR5 utilizing) Ba-L strain and the T-tropic (CXCR4 utilizing) IIIB strain. Both viruses were propagated in human peripheral blood lymphocytes. Compounds were tested for there ability to block infection of the HOS cell line (expressing hCXCR4/hCCR5/hCD4/pHIV-LTR-luciferase) by either HIV-1 Ba-L or HIV-1 IIIB. Compound cytotoxicity was also examined in the absence of virus addition.
HOS cells (expressing hCXCR4/hCCR5/hCD4/pHIV-LTR-luciferase) were harvested and diluted in Dulbeccos modified Eagles media supplemented with 2% FCS and non-essential amino acid to a concentration of 60,000 cells/ml. The cells were plated into 96-well plates (100 ul per well) and the plates were placed in a tissue culture incubator (37° C.; 5% CO2/95% air) for a period of 24 h.
Subsequently, 50 ul of the desired drug solution (4 times the final concentration) was added to each well and the plates were returned to the tissue culture incubator (37° C.; 5% CO2/95% air) for 1 h. Following this incubation 50 ul of diluted virus was added to each well (approximately 2 million RLU per well of virus). The plates were returned to the tissue culture incubator (37° C.; 5% CO2/95% air) and were incubated for a further 96 h.
Following this incubation the endpoint for the virally infected cultures was quantified following addition of Steady-Glo Luciferase assay system reagent (Promega, Madison, Wis.). Cell viability or non-infected cultures was measured using a CellTiter-Glo luminescent cell viability assay system (Promega, Madison, Wis.). All luminescent readouts are performed on a Topcount luminescence detector (Packard, Meridien, Conn.).

[1] = Human immunodeficiency virus 1, HOS HIV anti-infectivity assay

Row | SMILES | IC50 [1] [nM] | IC50 (HOS HIV anti-infectivity assay) [nM]
1 | CCOCc1c(CN(C)[C@H]2CCCc3cccnc32)nc2cccc(N3CCN(C)CC3)n12 [Example 87, (8S)—N-{[3-[(Ethyloxy)methyl]-5-(4-methyl-1-piperazinyl)imidazo[1,2-a]pyridin-2-yl]methyl}-N-methyl-5,6,7,8-tetrahydro-8-quinolinamine] | < 100 | –
2 | CC(c1nc2cccc(N3CCN(C)CC3)n2c1CO)N(C)[C@H]1CCCc2cccnc21 (stereo partly drawn) [Example 88, [5-(4-Methyl-1-piperazinyl)-2-(1-{methyl[(8S)-5,6,7,8-tetrahydro-8-quinolinyl]amino}ethyl)imidazo[1,2-a]pyridin-3-yl]methanol] | < 100 | –
3 | CN1CCN(c2cccc3nc(CN(C)C4CCCc5cccnc54)c(C(O)C(F)(F)F)n23)CC1 (stereo not drawn) [Example 89A, 2,2,2-Trifluoro-1-(5-(4-methyl-1-piperazinyl)-2-{[methyl(5,6,7,8-tetrahydro-8-quinolinyl)amino]methyl}imidazo[1,2-a]pyridin-3-yl)ethanol] | < 100 | –
4 | CN1CCN(c2cccc3nc(CN(C)C4CCCc5cccnc54)c(C(O)C(F)(F)F)n23)CC1 (stereo not drawn) [Example 89B, 2,2,2-Trifluoro-1-(5-(4-methyl-1-piperazinyl)-2-{[methyl(5,6,7,8-tetrahydro-8-quinolinyl)amino]methyl}imidazo[1,2-a]pyridin-3-yl)ethanol] | – | 100 to 500

Next, values leading:

Row | IC50 [1] [nM] | IC50 (HOS HIV anti-infectivity assay) [nM] | SMILES
5 | < 100 | – | CN(Cc1nc2cccc(OCCN3CCCC3)n2c1CO)[C@H]1CCCc2cccnc21 [Example 80, (2-({Methyl[(8S)-5,6,7,8-tetrahydro-8-quinolinyl]amino}methyl)-5-{[2-(1-pyrrolidinyl)ethyl]oxy}imidazo[1,2-a]pyridin-3-yl)methanol]
6 | < 100 | – | CN(Cc1nc2cccc(OCCN3CCCCC3)n2c1CO)[C@H]1CCCc2cccnc21 [Example 82, (2-({Methyl[(8S)-5,6,7,8-tetrahydro-8-quinolinyl]amino}methyl)-5-{[2-(1-piperidinyl)ethyl]oxy}imidazo[1,2-a]pyridin-3-yl)methanol]
7 | < 100 | – | CC(O)c1c(CN(C)[C@H]2CCCc3cccnc32)nc2cccc(N3CCN(C)CC3)n12 (stereo partly drawn) [Example 84, 1-[5-(4-Methyl-1-piperazinyl)-2-({methyl[(8S)-5,6,7,8-tetrahydro-8-quinolinyl]amino}methyl)imidazo[1,2-a]pyridin-3-yl]ethanol]
8 | < 100 | – | CCC(O)c1c(CN(C)[C@H]2CCCc3cccnc32)nc2cccc(N3CCN(C)CC3)n12 (stereo partly drawn) [Example 85, 1-[5-(4-Methyl-1-piperazinyl)-2-({methyl[(8S)-5,6,7,8-tetrahydro-8-quinolinyl]amino}methyl)imidazo[1,2-a]pyridin-3-yl]-1-propanol]
9 | < 100 | – | COCc1c(CN(C)[C@H]2CCCc3cccnc32)nc2cccc(N3CCN(C)CC3)n12 [Example 86, (8S)—N-Methyl-N-{[3-[(methyloxy)methyl]-5-(4-methyl-1-piperazinyl)imidazo[1,2-a]pyridin-2-yl]methyl}-5,6,7,8-tetrahydro-8-quinolinamine]
